Experimental data: patent US12691063B1, “Methods of using radiprodil in the treatment of disorders” (GRIN Therapeutics, Inc., priority 2023, dated 2026)
Values joined by “and” are separate entries in the source; they are usually repeats but may differ in a detail not shown here. Equal values may be shown once.

Key:
[1] = tested on: patients with GRIN-related neurodevelopmental disorder and GoF variants, behavioral symptoms; assay: Open-label phase 1B study, behavioral cohort; type: in vivo, human
Excerpt: (§1) This is a global, open-label, multicenter, phase 1B study to evaluate the safety, tolerability, and PK of multiple individually titrated doses of radiprodil and to assess the treatment effect on seizures and behavioral symptoms in 2 cohorts of pediatric participants: 1 cohort of participants with drug resistant seizures (with or without behavioral symptoms) (Cohort 1) and 1 cohort of participants with behavioral symptoms (but no qualifying seizures) (Cohort 2) caused by GoF variants in the GRIN1, 2A, 2B, or 2D genes (GRIN2B GoF variants only in the US). These GoF variants are gene mutations that cause an increased sensitivity of NMDA receptors to glutamate or through decreased inhibition by magnesium, altered affinity to glycine, or other relevant changes considered to increase NMDA transmission. Drug-resistant seizures are defined as a failure to respond to at least 2 antiseizure medication (ASM) therapies taken at adequate doses for an appropriate duration with assured medication adherence as determined by the treating physician. Participants with seizures to be enrolled in the first cohort should have at least 1 observable motor seizure per week and ≥4 observable motor seizures in the prospective 4-week Observation Period.
A behavioral cohort of patients from 6 months to 12 years of age with known GoF variants confirmed via method described in Myers, et al., Hum Mol Genetics. 2023, 32:2857-2871, was enrolled. […] Motor seizures included drop seizures; generalized onset seizures included tonic-clonic, tonic, bilateral clonic, atonic, myoclonic-atonic, and myoclonic-tonic-clonic seizures; and focal seizures included seizures with bilateral hyperkinetic motor features and clonic seizures.

PTZ-induced convulsions = assay: Juvenile PTZ rat model of generalized clonic-tonic seizures; type: in vivo; settings: 10 mg/kg; postnatal day 12 and postnatal day 18 rats
Experimental: (§2) Radiprodil anticonvulsant efficacy was specifically tested in rats at different time points during postnatal development, using pentylenetetrazole (PTZ) as a convulsant, to induce generalized clonic-tonic seizures. The activity of radiprodil in this juvenile PTZ rat model was tested up to 30 mg/kg, showing efficacy at a dose of 1 mg/kg. The calculated free plasma fraction of an orally administered 1 mg/kg dose is expected to give around 60% occupancy of the NR2B receptor, based on an ex-vivo occupancy study in rodents and assuming a 1:1 brain to plasma ratio, see below for further details.

NR2B receptor = target: T1, NR2B receptor (Rattus norvegicus, UniProt P35439+Q00960); assay: NR2B occupancy calculated from ex-vivo occupancy study in rodents; settings: po; orally administered 1 mg/kg dose; calculated free plasma fraction; 1:1 brain to plasma ratio assumed
T1 construct: from tissue; host or cells: rodent brain (ex vivo)
Experimental: as §2

[2] = 4-week juvenile rat toxicology study; type: in vivo; settings: 0.05 mg/kg bid starting dose
Experimental: The starting dose for each participant enrolled in the study will be set at 0.05 mg/kg bid. […] In patients with neuropathic pain, a total daily dose of 135 mg (45 mg tid) up to 14 weeks has been previously administered. […] Dose Escalation
For the sites not located in the US, based on the dedicated PBPK model, the increment will be a dose expected to give no more than a 2.5-fold higher plasma concentration.

[3] = tested on: patients with GRIN-related neurodevelopmental disorder and GoF variants, countable motor seizures (CMS); assay: Open-label phase 1B study, seizure cohort; type: in vivo, human
Excerpt: Investigational Product (IP): Radiprodil. This example describes an open-label, multicenter phase 1B study being conducted to evaluate the safety, tolerability, and pharmacokinetics (PK) of multiple individually titrated doses of radiprodil and to assess the treatment effect on seizures in participants with drug-resistant seizures caused by gain-of-function (GoF) variants in the GRIN1, GRIN2A, GRIN2B, or GRIN2D genes (GRIN2B GoF variants in the US only).
as §1
A seizure cohort of patients from 6 months to 12 years of age with known GoF variants confirmed via method described in Myers, et al., Hum Mol Genetics. 2023, 32:2857-2871, was enrolled. The patients had drug-resistant seizures with or without behavioral symptoms. Patients also had ≥1 weekly countable motor seizure (CMS) with ≥4 generalized or focal seizures during the observation period. Motor seizures included drop seizures; generalized onset seizures included tonic-clonic, tonic, bilateral clonic, atonic, myoclonic-atonic, and myoclonic-tonic-clonic seizures; and focal seizures included seizures with bilateral hyperkinetic motor features and clonic seizures.
Primary endpoints included safety, tolerability, and radiprodil plasma concentrations. Key secondary endpoints (aka, change from baseline in observable daily CMS frequency using an electronic diary (eDiary)), included ≥50%, ≥90%, and 100% reductions from baseline in seizure frequency; proportion of seizure-free days; and Clinical Global Impressions of Change (CGI-C) and Caregiver Global Impressions of Change (CaGI-C), from baseline to the end of the maintenance period.

[4] = all unrelated to radiprodil treatment

T1 sequence (Q00960 27-1482, other chains not shown): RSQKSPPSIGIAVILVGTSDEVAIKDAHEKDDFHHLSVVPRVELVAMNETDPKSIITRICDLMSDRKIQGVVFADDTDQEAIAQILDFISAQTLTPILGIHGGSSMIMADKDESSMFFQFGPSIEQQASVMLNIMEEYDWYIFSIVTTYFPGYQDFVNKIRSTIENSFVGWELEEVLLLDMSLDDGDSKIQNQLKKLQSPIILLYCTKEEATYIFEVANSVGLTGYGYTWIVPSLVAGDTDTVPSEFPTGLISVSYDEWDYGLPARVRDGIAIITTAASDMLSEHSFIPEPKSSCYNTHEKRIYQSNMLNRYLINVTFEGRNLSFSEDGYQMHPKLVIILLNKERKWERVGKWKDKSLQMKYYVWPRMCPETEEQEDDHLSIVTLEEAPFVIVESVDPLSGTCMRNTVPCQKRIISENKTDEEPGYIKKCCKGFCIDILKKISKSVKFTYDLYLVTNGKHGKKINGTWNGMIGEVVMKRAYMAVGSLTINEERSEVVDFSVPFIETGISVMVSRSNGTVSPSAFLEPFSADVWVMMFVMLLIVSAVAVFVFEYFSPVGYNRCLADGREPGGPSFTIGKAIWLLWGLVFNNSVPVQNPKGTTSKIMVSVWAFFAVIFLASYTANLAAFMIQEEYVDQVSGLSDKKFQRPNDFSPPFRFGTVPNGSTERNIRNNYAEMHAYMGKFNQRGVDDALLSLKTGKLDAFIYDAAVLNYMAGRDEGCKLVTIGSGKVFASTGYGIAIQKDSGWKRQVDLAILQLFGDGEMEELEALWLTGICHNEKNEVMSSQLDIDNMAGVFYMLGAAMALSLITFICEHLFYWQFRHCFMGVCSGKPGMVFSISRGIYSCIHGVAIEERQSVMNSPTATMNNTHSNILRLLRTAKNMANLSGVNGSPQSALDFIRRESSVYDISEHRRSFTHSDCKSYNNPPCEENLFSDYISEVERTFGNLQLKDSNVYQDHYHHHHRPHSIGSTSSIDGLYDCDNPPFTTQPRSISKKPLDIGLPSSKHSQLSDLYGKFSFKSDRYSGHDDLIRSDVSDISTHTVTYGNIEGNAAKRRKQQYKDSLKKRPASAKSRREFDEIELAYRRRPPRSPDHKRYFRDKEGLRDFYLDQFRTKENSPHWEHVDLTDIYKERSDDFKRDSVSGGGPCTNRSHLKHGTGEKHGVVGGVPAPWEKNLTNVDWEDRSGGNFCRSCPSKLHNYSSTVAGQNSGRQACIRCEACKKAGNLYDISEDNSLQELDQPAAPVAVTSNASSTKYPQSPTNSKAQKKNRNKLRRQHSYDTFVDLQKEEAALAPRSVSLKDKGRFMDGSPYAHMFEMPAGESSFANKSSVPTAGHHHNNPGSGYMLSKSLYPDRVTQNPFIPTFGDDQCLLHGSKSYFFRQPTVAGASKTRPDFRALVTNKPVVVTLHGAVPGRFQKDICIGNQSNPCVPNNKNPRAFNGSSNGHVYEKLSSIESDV

Compound: O=C(Nc1ccc2[nH]c(=O)oc2c1)C(=O)N1CCC(Cc2ccc(F)cc2)CC1 [radiprodil, Radiprodil]
- Any TEAE ([1]; Behavioral Cohort (n = 7)): 6 (85.7) n (%)
- TEAE Abnormal behavior ([1]; Behavioral Cohort (n = 7)): 2 (28.6) n (%)
- TEAE Agitation ([1]; Behavioral Cohort (n = 7)): 2 (28.6) n (%)
- TEAE Cough ([1]; Behavioral Cohort (n = 7)): 1 (14.3) n (%)
- TEAE Diarrhea ([1]; Behavioral Cohort (n = 7)): 2 (28.6) n (%)
- TEAE Dystonia ([1]; Behavioral Cohort (n = 7)): 1 (14.3) n (%)
- TEAE Fatigue ([1]; Behavioral Cohort (n = 7)): 2 (28.6) n (%)
- TEAE Gastroenteritis ([1]; Behavioral Cohort (n = 7)): 1 (14.3) n (%)
- TEAE Pyrexia ([1]; Behavioral Cohort (n = 7)): 1 (14.3) n (%)
- TEAE Respiratory tract infection ([1]; Behavioral Cohort (n = 7)): 2 (28.6) n (%)
- tolerability ([1]; Example 9): generally well-tolerated
- patients who experienced SAEs [1, 4]: Three
- Caregiver Global Impressions of Change (CaGI-C) ([1]; caregivers, behavioral cohort): clinical improvement in most patients
- Clinical Global Impressions of Change (CGI-C) ([1]; clinicians, behavioral cohort): clinical improvement in most patients
- tonic phases of PTZ-induced convulsions (PTZ-induced convulsions): completely blocked
- receptor occupancy at 1 mg/kg (NR2B receptor): ~60%
- exposure level (total Cmax and AUC) lower than NOAEL exposure in juvenile rat toxicology study [2]: more than 20 fold
- patients seizure-free during 80% of days ([3]; 8-week maintenance period): 6 of 7
- tolerability ([3]; Example 4): generally well-tolerated
- Any TEAE ([3]; Seizure Cohort (n = 8)): 8 (100) n (%)
- TEAE Abnormal behavior ([3]; Seizure Cohort (n = 8)): 1 (12.5) n (%)
- TEAE Agitation ([3]; Seizure Cohort (n = 8)): 1 (12.5) n (%)
- TEAE Cough ([3]; Seizure Cohort (n = 8)): 2 (25.0) n (%)
- TEAE Diarrhoea ([3]; Seizure Cohort (n = 8)): 2 (25.0) n (%)
- TEAE Dystonia ([3]; Seizure Cohort (n = 8)): 2 (25.0) n (%)
- TEAE Fatigue ([3]; Seizure Cohort (n = 8)): 1 (12.5) n (%)
- TEAE Gastroenteritis ([3]; Seizure Cohort (n = 8)): 2 (25.0) n (%)
- TEAE Pyrexia ([3]; Seizure Cohort (n = 8)): 4 (50.0) n (%)
- TEAE Respiratory tract infection ([3]; Seizure Cohort (n = 8)): 2 (25.0) n (%)
- seizure cohort patients with reductions from baseline in CMS frequency ([3]; after radiprodil treatment): 6 of the 7 and 6 of 7
- patients who experienced SAEs [3, 4]: Three
- Caregiver Global Impressions of Change (CaGI-C) ([3]; caregivers, seizure cohort): clinical improvement in most patients
- Clinical Global Impressions of Change (CGI-C) ([3]; clinicians, seizure cohort): clinical improvement in most patients
- reduction in CMS frequency in most patients ([3]; seizure cohort): ≥ 50%
